Measured values as given in the supplement of paper PMC8882468.
± gives the standard deviation of the averaged measurements.

Columns and labels:
Assay in all cases: CTG-3D luminescence at 96 h relative to day-0 seeding control (ratio to day 0); higher = more growth / less cytotoxicity
[1] = test system: HCI-001 (organoid from a triple-negative breast cancer xenograft)
Experimental: (§1)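 PDX-derived breast cancer organoids (PDxO) in 384-well Matrigel plates, 8-point dose (0.000000625-100 uM), 96 h at 37 C; CellTiter-Glo 3D luminescence normalised to the day-0 seeding control (mean of 4 technical replicates over mean of 4 day-0 wells).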

[2] = test system: HCI-002 (organoid from a triple-negative breast cancer xenograft)
Experimental: as §1

[3] = test system: HCI-008 (organoid from a HER2-enriched breast cancer xenograft)
Experimental: as §1

[4] = test system: HCI-011.E2 (organoid from an ER-positive breast cancer xenograft)
Experimental: as §1

[5] = test system: HCI-024 (organoid from a breast cancer xenograft)
Experimental: as §1

O=c1[nH]cc(F)c(=O)[nH]1 [5-fluorouracil]
CTG-3D luminescence at 96 h
Details | 12.5 pM | 0.00025 µM | 0.005 µM | 0.1 µM | 1 µM | 10 µM | 100 µM | 625 fM
[1], days in culture: 240 | 1.75 | 1.08 | 1.16 | 0.972 | 1.31 | 0.84 | 0.903 | 1.74
[1], days in culture: 260 | 2.43 | 1.07 | 2.1 | 1.43 | 1.62 | 1.42 | 1.14 | 1.09
[1], days in culture: 269 | 1.52 | 1.48 | 1.32 | 1.97 | 1.62 | 2.03 | 1.46 | 1.77
[1], days in culture: 327 | 1.6 | 1.41 | 2.11 | 1.91 | 1.54 | 1.38 | 1.51 | 1.69
[1], days in culture: 346 | 1.42 | 1.55 | 1.28 | 1.28 | 1.41 | 1.26 | 1.3 | 1.12
[1], days in culture: 364 | 1.68 | 1.19 | 1.35 | 1.35 | 1.13 | 1.21 | 0.902 | 1.55
[2], days in culture: 62 | 2.85 | 2.76 | 3.08 | 2.64 | 2.28 | 2.07 | 1.07 | 3.16
[2], days in culture: 82 | 2.94 | 2.81 | 2.15 | 2.78 | 2.66 | 1.66 | 1.08 | 3.04
[2], days in culture: 91 | 4.34 | 3.73 | 3.78 | 4.16 | 2.98 | 3.14 | 1.6 | 4.03
[2], days in culture: 191 | 2.53 | 2.58 | 2.45 | 2.4 | 2.34 | 1.91 | 1.22 | 2.43
[2], days in culture: 209 | 2.41 | 2.39 | 2.11 | 2.23 | 2.05 | 1.43 | 1.02 | 2.45
[2], days in culture: 227 | 6.3 | 6.54 | 6.31 | 7.6 | 5.98 | 3.45 | 1.93 | 6.49
[3], days in culture: 228 | 1.95 ± 0.28 | 2.08 ± 0.21 | 1.74 ± 0.25 | 1.52 ± 0.27 | 1.51 ± 0.32 | 1.51 ± 0.029 | 0.917 ± 0.042 | 1.88 ± 0.097
[3], days in culture: 244 | 1.38 | 1.81 | 2.06 | 1.88 | 1.6 | 1.53 | 1.03 | 2.2
[4], days in culture: 74 | 1.83 | 2.05 | 1.91 | 1.77 | 2.19 | 2.63 | 1.57 | 1.62
[5], days in culture: 105 | 1.58 | 1.5 | 1.45 | 1.66 | 1.59 | 1.53 | 0.681 | 2.03
[5], days in culture: 122 | 2.23 | 2.19 | 1.64 | 1.97 | 1.98 | 2.04 | 0.857 | 3.11
[5], days in culture: 163 | 2.3 | 2.61 | 1.89 | 2.32 | 2.29 | 1.9 | 1.21 | 2.13

[4]
Details | CTG-3D luminescence at 96 h
12.5 pM | 1.56 ± 0.28
0.00025 µM | 1.46 ± 0.53
0.005 µM | 1.7 ± 0.38
0.1 µM | 1.81 ± 0.82
1 µM | 1.73 ± 0.95
10 µM | 2.08 ± 0.53
100 µM | 1.35 ± 0.6
625 fM | 1.63 ± 0.65
